The results in this text go back to ChEMBL document CHEMBL1129865, “Synthesis, evaluation, and crystallographic analysis of L-371,912: A potent and selective active-site thrombin inhibitor” (Bioorg Med Chem Lett, 1997).

Assay [1] in a line: Concentration required to double the activated partial thromboplastin time in human plasma was determined. Format: functional.
For assay [2], the system named is Rattus norvegicus. The assay can be described thus: Efficacy by observing the number of occulation in rat when a dose of 6 ug/Kg/min iv. administration; 3/6. Format: functional.
Another assay addresses T1, Serine protease 1 (Bos taurus, UniProt P00760).
T1 sequence (P00760 whole entry): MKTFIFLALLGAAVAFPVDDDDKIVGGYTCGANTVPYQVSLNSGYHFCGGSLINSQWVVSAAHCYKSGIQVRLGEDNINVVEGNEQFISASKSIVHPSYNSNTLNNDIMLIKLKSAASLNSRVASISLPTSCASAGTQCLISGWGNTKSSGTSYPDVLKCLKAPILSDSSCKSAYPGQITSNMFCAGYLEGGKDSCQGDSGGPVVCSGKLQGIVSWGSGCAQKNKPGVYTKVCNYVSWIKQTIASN
The assay can be described thus: In vitro inhibition against bovine trypsin was determined.

Assay [3] concerns Rattus norvegicus. The assay can be described thus: Efficacy by observing the number of occulation in rat when a dose of 6 ug/Kg/min iv. administration; 1/6. Format: functional.

Turning to `CNC(=O)C(=O)[C@@H](NC(=O)[C@@H]1CCCN1C(=O)[C@@H](Cc1ccccc1)NC)[C@H]1CC[C@H](N)CC1`, the APPTT in assay [1] turned out to be 2 µM. The Occulations in the assay on Rattus norvegicus [2] stood at 3. Besides, at Serine protease 1, affinity was put at a Ki of 1150 nM.

Consider `CN[C@H](Cc1ccccc1)C(=O)N1CCC[C@H]1C(=O)NC[C@H]1CC[C@H](N)CC1`, for which the APPTT in assay [1] came out at 1.1 µM. The Occulations with Rattus norvegicus [3] is 1.

The term Ki denotes a measure of affinity in units of concentration, obtained from inhibition or displacement. A higher Ki goes with lower affinity.
